Source: ChEMBL document CHEMBL3217556, “Synthesis and anti-Helicobacter pylori activity of analogues of spirolaxine methyl ether” (2012)
In brackets after ≈: the same amount, converted by molar mass.

Test system: Helicobacter pylori
Assay: Antibacterial activity against Helicobacter pylori assessed as bacterial colonies formation incubated for 24 hrs measured after up to 5 days culturing time by CFU counting analysis
Assay type: functional

Compound | MBC | MIC
COc1cc(OC)c2ccn(CCCC[C@H]3CCC[C@]4(CC[C@H](C)O4)O3)c2c1 | 3 µg/mL (≈ 7.74 µM) | 3 µg/mL (≈ 7.74 µM)
COc1cc(OC)c2ccn(CCCCC[C@H]3CCC[C@]4(CC[C@H](C)O4)O3)c2c1 | 8.3 µg/mL (≈ 20.7 µM) | 8.3 µg/mL (≈ 20.7 µM)
COc1cc(OC)c2ccn(CCCCCCCC[C@H]3CCC[C@]4(CC[C@H](C)O4)O3)c2c1 | > 100 µg/mL | > 100 µg/mL
COc1cc(OC)c2c(c1)N(CCCC[C@H]1CCC[C@]3(CC[C@H](C)O3)O1)C(=O)C2 | 12.5 µg/mL (≈ 31 µM) | 12.5 µg/mL (≈ 31 µM)
COc1cc(OC)c2c(c1)N(CCCCC[C@H]1CCC[C@]3(CC[C@H](C)O3)O1)C(=O)C2 | 12.5 µg/mL (≈ 29.9 µM) | 12.5 µg/mL (≈ 29.9 µM)
COc1cc(OC)c2c(c1)N(CCCCCCCC[C@H]1CCC[C@]3(CC[C@H](C)O3)O1)C(=O)C2 | 16 µg/mL (≈ 34.8 µM) | 16 µg/mL (≈ 34.8 µM)
COc1cc(OC)c2c(c1)[C@@H](CCCC[C@H]1CCC[C@]3(CC[C@H](C)O3)O1)OC2=O | 12.5 µg/mL (≈ 30.9 µM) | 12.5 µg/mL (≈ 30.9 µM)
COc1cc(OC)c2c(c1)[C@@H](CCCCCCCC[C@H]1CCC[C@]3(CC[C@H](C)O3)O1)OC2=O | 3 µg/mL (≈ 6.51 µM) | 3 µg/mL (≈ 6.51 µM)
COc1cc(OC)c2c(c1)[C@@H](CCCCC[C@H]1CCC[C@]3(CC[C@@H](C)O3)O1)OC2=O | 1 µg/mL (≈ 2.39 µM) | 2 µg/mL (≈ 4.78 µM)
